Data on two molecules can be found in patent publication US8513310B2, “Cosmetic use of phytosphingosine as slimming agent and cosmetic compositions comprising phytosphingosine” (LVMH Recherche, priority 2002, dated 2013).

Assay [1] concerns human adipocytes. As to the kind of experiment: Release of glycerol by human adipocytes in culture (lipolysis). The format is cell-based. To be noted: for glycerol (pg/mL) release: 25 μg/mL. From the text:
Human adipocytes originating from a plasty of a person, which are marketed by ZEN-BIO (USA), were used at an advanced stage of the adipocyte maturation. The reception of these cells in culture took place 16 days after sowing. […] The properties of Coleus described above for the 3T3F442A murine adipocytes were first of all verified on these human cells: lipolytic activity by measurement of the release of glycerol and non-esterified fatty acids.

Assay [2] deals with glycerol-3-phosphate dehydrogenase (G3PDH). In words: G3PDH activity (lipogenesis) in 3T3 F442A preadipocytes treated with media conditioned by treated mature adipocytes. The assay is classed as cell-based, mouse. The settings on record: 8 days, control 0.0016. From the text: Thus, the mature adipocytes are firstly treated with PB+PS Secondly, the culture medium which is conditioned with these adipocytes is placed in contact with preadipocytes the maturation of which into adipocytes will be followed. A key enzyme in the process of synthesis of triglycerides is glycerol-3-phosphate dehydrogenase (G3PDH): its specific activity increases considerably during maturation and can thus be used as a precise and sensitive measurement of adipocyte conversion (Pairault J., Green H., Proc. Nat. Acad. Sci. USA, (1979) 76, 5138-42; Koekemoer T. C. et al, Int. J. Biochem. Cell Biol. (1995) 27, 625-32). […] Since G3PDH is a hydrosoluble enzyme, its activity is measured in the supernatant of the cell grindings, in the presence of appropriate substrates (NADH, TEA (triethanolamine)-EDTA, 50 mM, 1 mM). The specific activity is calculated from these determinations. […] Then, the percentage inhibition is calculated of the inhibition of the activity of the G3PDH produced by the substances compared to the controls. […] The consumption of NADH as a function of time is measured by spectrophotometry (KONTRON) at 340 nm. An absorbance variation/minute (Δ Abs/minute) can thus be calculated which corresponds to the initial rate of the enzymatic reaction. […] The total protein content is evaluated by the BCA method (Protein Assay Reagent-PIERCE LTD)

The subject of the next assay is 3T3-F442A adipocytes. As to the kind of experiment: Leptin secretion by murine 3T3-F442A adipocytes in culture (ELISA on supernatants). The format is cell-based, mouse. To be noted: for increase in the secretion of leptin / stimulation of the leptin secretion: D21, versus control; for leptin (pg/mL) Average in culture supernatants: mature 3T3-F442A adipocytes, control 1510. The procedure:
The principle of the test is to control the secretion of leptin by the adipocytes.
Culture of 3T3 F442A Cells
The 3T3 F442A preadipocytes are shown at D0 in 35 mm Petri dishes (Corning) and placed in an oven at 37° C. under an air-CO2 atmosphere (95-5). The cells are cultivated in an Eagle minimum essential medium modified according to Dulbecco (glucose 4.50 g/l) (DMEM-GIBCO BRL) supplemented with 5% of calf serum (CS) (BIOMEDIA®) and 5% of foetal calf serum (GIBCO) during the growth phase. The medium is changed at D2 and D4.
At the cell confluence (at D7), the medium is changed:
The basic medium remains the same (DMEM) but is supplemented with 10% of foetal calf serum (FCS) and insulin (5 μg/mL) (SIGMA).
The medium is then changed at D9 and D11.
At D14, D16 and D18, a treatment is made with the composition the effectiveness of which on the leptin synthesis it is sought to verify.
The leptin secreted is determined by means of a sandwich-type Elisa technique re-running with a Quantikine M Mouse Leptin Immunoassay kit.
This ELISA determination uses recombined mouse leptin, expressed in E. coli and antibodies directed against recombinant mouse leptin.
The test uses a “sandwich” immunoenzymatic technique. The microplate wells are lined with a mouse leptin polyclonal antibody.
The standards, controls and samples are deposited in the wells and, at the same moment, all the leptin present binds to the immobilised antibody.
The bound leptin is then detected by a mouse anti-leptin antibody which is coupled to an enzyme peroxidase. A substrate solution is then added into the wells. The enzymatic reaction leads to a blue solution which turns yellow after addition of a quenching solution.
The intensity of the colour measured is proportional to the amount of leptin present. The reading of the optical density is done at 450 nm on the spectrophotometer.
The determination is obtained afterwards of the dose-response curves in relation to the measurement of natural leptin, parallel to the standard curves obtained with “recombinant” Quantikine M standards. The Quantikine M kit thus enables the relative mass values for the natural mouse leptin to be determined.
The optical density measured at 450 nm is proportional to the amount of antibody fixed, which is itself proportional to the amount of leptin present initially. The results are expressed in pg/mL of leptin present in the cell supernatants.
The samples were tested in triplicate.
Three compositions containing 0.25, 1 and 2 μg/mL, respectively, of phytosphingosine or of its hydrochloride, were tested.
On the technique in general: An ELISA detects its analyte on a solid surface through an enzyme-linked reagent.

Assay [3] deals with human adipocytes. As to the kind of experiment: Leptin secretion by human adipocytes in culture. The format is cell-based. The settings on record: most effective doses lower than for murine adipocytes. From the text:
(§1) Human adipocytes originating from a plasty of a person, which are marketed by ZEN-BIO (USA), were used at an advanced stage of the adipocyte maturation. The reception of these cells in culture took place 16 days after sowing. They are cultivated in a specific medium ensuring their differentiation throughout the whole treatment. • D-16: sowing • D0: start of the treatment with the extract of Coleus (PB) and/or phytosphingosine (PS) • D6 to D18: determination of the various parameters.

The subject of assay [4] is human adipocytes. As to the kind of experiment: Release of non-esterified fatty acids by human adipocytes in culture. The assay is classed as cell-based. The settings on record: dose of 6 ng/mL.
Source text: as §1, with “parameters. The properties of Coleus described above for the 3T3F442A murine adipocytes were first of all verified on these human cells: lipolytic activity by measurement of the release of glycerol and non-esterified fatty acids.” for “parameters.”

Setting [5] is: 0.25 μg/mL, day D21 (7 days of treatment).

On to `CCCCCCCCCCCCCCC(O)C(O)[C@@H](N)CO` (stereo in doubt) [phytosphingosine, (2S,3S,4R)-2-amino-1,3,4-octadecanetriol], for which the “glycerol (pg/mL) release” value is recorded as 174.4 pg/mL in the assay on human adipocytes [1] (day 3, control 73.78); 196.2 pg/mL with human adipocytes [1] (day 6, control 120.8); 302.9 pg/mL in the assay on human adipocytes [1] (day 9, control 147.2); 416.4 pg/mL in the assay with human adipocytes [1] (day 12, control 198.4); 460.6 pg/mL in the assay with human adipocytes [1] (day 15, control 196.3); 659.8 pg/mL in the assay on human adipocytes [1] (day 18, control 230.9). Also, the “glycerol (pg/mL) release” value in the assay on human adipocytes [1] (day 21, control 276.6) came to 777.1 pg/mL; in the assay with human adipocytes [1] (day 23, control 238.9) it was 687 pg/mL. For the same molecule, the release of glycerol entry in the assay with human adipocytes [1] (dose of 6 ng/mL) is “responsible for a release of glycerol with time”. The “O.D. (nmoles NAD+) average” value in assay [2] (PB 0, PS 0.5 μg/mL) was 0.0014 nmoles NAD+; in assay [2] (PB 0, PS 1 μg/mL), 0.00165 nmoles NAD+. In addition, the “increase in the secretion of leptin” value with 3T3-F442A adipocytes (0.25 μg/mL) was “more than 18%”. Besides, the “leptin (pg/mL) Average in culture supernatants” value in the assay with 3T3-F442A adipocytes (setting [5]) was 1789 pg/mL; with 3T3-F442A adipocytes (1 μg/mL, day D21) it was 1563.6 pg/mL; in the assay with 3T3-F442A adipocytes (2 μg/mL, day D21) it was 1428.8 pg/mL. In addition, in the assay on human adipocytes [3], the “leptin secretion in human adipocytes” value is given as “induces an increase of leptin secretion”. In addition, the “release of non-esterified fatty acids” value in the assay with human adipocytes [4] is “without concomitant release of non-esterified fatty acids”.

Regarding `CCCCCCCCCCCCCC[C@@H](O)[C@@H](O)[C@@H](N)CO.Cl` [Phytosphingosine hydrochloride], the “increase in the secretion of leptin” value with 3T3-F442A adipocytes (0.25 μg/mL) is reported as “+18%”. Besides, the “leptin (pg/mL) Average in culture supernatants” value with 3T3-F442A adipocytes (setting [5]) is reported as 1789 pg/mL; in the assay with 3T3-F442A adipocytes (1 μg/mL, day D21), 2301.3 pg/mL; in the assay on 3T3-F442A adipocytes (2 μg/mL, day D21) it was 1907.9 pg/mL. For the same molecule, the “stimulation of the leptin secretion” value in the assay with 3T3-F442A adipocytes (1 μg/mL) is listed as “+52%”; in the assay on 3T3-F442A adipocytes (2 μg/mL), “+26%”.
